US7781486B2, “Punctual stimulation therapy” (priority 2003, dated 2010)

System: pain (VAS scale) in patients
Test: Punctual stimulation on both ears with simultaneous intravenous infusion of D-phenylalanine solution; pain reduction in patient case reports
Format: in vivo, human
Source text: Very good relief of existing pain can be achieved by means of punctual stimulation, in which electrical current is supplied by way of needle electrodes stuck into the skin, whereby these needle electrodes are placed, in particular, at specifically sensitive points of an outer ear, in the case of the predominant number of patients treated with such stimulation.
On each of three consecutive days, punctual stimulation on both ears, with simultaneous intravenous infusion of a substance that inhibits the enzymatic decomposition of endogenous opioid neuropeptides, was carried out. Afterwards, punctual stimulation was carried out without infusion for the four subsequent days, by means of a small device worn by the patient, to supply power to needle electrodes that are stuck into the skin on one ear. This sequence was repeated several times, in coordination with the patient's need for pain reduction. In the case of punctual stimulations carried out with simultaneous infusion, electrical current was supplied to needle electrodes that were stuck into sensitive points of both ears. A sterile aqueous solution containing 20 g/L D-phenylalanine was administered as the infusion, whereby a total amount of D-phenylalanine of 200 to 300 mg/kilogram of body weight was administered during every treatment procedure. On the first days of the three-day sequences, in each instance, the infusion was started at least 10 min before the punctual stimulation. The flow velocity of the infusion was selected in accordance with an infusion period of 2.5 to 5 h.
Admission to clinic. Punctual stimulation carried out without infusion, by means of power supply to needle electrodes that are stuck into one ear, over a period of four days. Pain reduction achieved in this manner. Subsequently, punctual stimulation by means of power supply to needle electrodes that are stuck in both ears, and simultaneous intravenous infusion of an aqueous solution containing 15 g/L D-phenylalanine, in an amount of 250 mg/kg of body weight. An anti-emetic was also added to the solution. Duration of infusion about 3 h. During the course of this treatment, pain reduction all the way to freedom from pain (VAS-0). After 8 days, discharge from the clinic—free of symptoms, no vomiting, no nausea, no medication. At discharge, application of a device for punctual stimulation on one ear, without infusion, as mentioned above, for four days. Freedom from symptoms remains maintained during this stimulation period. On the following days, slight pain in the abdominal region, in individual instances. Three days after completion of the prior stimulation, again application of a device for a stimulation lasting four days—immediately clear relief. After this stimulation, again increase in pain, but tolerable without medication. After another three days, again application of such a device—free of symptoms. After removal of the device, again slight increase in pain, whereby the number of pain attacks and their intensity has decreased in comparison with previously. After several days, again a device applied for stimulation on one ear, lasting for four days—free of symptoms. After removal of the device, slow increase in pain to VAS-3-4. Ten days after removal of the device, again punctual stimulation on two ears, with intravenous infusion, as explained above. Pain reduction to VAS-0. […] Subsequently slow increase in pain up to maximum VAS-4. Two weeks after punctual stimulation on both ears, again application of a device for four days of stimulation on one ear without infusion—free of symptoms during stimulation. Another two weeks later, again application of such a device—free of symptoms during stimulation. Afterwards, more severe pain again in paraumbilical region, in individual instances. Again, application of a device as mentioned—free from symptoms during the stimulation. Later, sudden increase in pain. Therefore one week later, again punctual stimulation on both ears, with infusion. VAS-0. […]

N[C@H](Cc1ccccc1)C(=O)O [D-phenylalanine]
dulling of sensory system (after first treatment, 20 g/L, 300 mg/kg i.v.): without dulling of the sensory system
duration of complete freedom from pain after treatment (after second treatment with infusion): 48 h
maximum pain (VAS) on slow increase after treatment (after the 48 h following second treatment with infusion): ≤ 4 VAS
pain (VAS) on increase after the pain-free period (after three pain-free days): 4 VAS
pain after treatment (ankle pain VAS-10, back pain, first treatment: 15 g/L, 250 mg/kg i.v., 3 h, stimulation on both ears): complete freedom from pain
pain reduction during each treatment procedure (carcinoma with generalized metastases, 20 g/L D-phenylalanine i.v., 200 to 300 mg/kg, infusion 2.5 to 5 h, with punctual stimulation on both ears, three consecutive days): pain reduction, which went all the way to freedom from pain
pain (VAS) during treatment (lumbar ischialgia, from VAS 9.5, 20 g/L, 300 mg/kg i.v., 3 h, stimulation on both ears): 0 VAS
pain after treatment (second treatment on both ears with infusion): Complete freedom from pain
pain after treatment (second treatment with infusion, from VAS-6): complete freedom from pain achieved
